Here are results for two compounds from patent US6348487B1, “2-phenyl benzimidazole derivatives as MCP-1 antagonists” (Millennium Pharmaceuticals, Inc., priority 1996, dated 2002).

Data set [1] has as its system T lymphocyte blast cells (CD3-Blasts). Description: CD3-Blast Chemotaxis Assay (transendothelial migration to MCP-1). As to conditions: 10 μM compound; MCP-1 about 10 nM; ECV304 endothelial coated Transwells. It counts as cell-based, human. An excerpt: Recombinant human MCP-1 was obtained from Peprotech (Rockey Hill, N.J.). T lymphocyte blast cells (CD3-Blasts) were generated by standard protocols (Coligan, J. E., A. M. Kruisbeek, D. H. Macgulies, E. M. Shevach, and W. Strober, editors. 1992. Current Protocols in Immunology. John Wiley and Sons, New York 7.1.2, 7.10.1-7.10. 10). Briefly, human peripheral blood mononuclear cells (PBMC) were isolated from heparinized venous blood by Percoll density gradient centrifugation (d=1.088) at room temperature. RBCs were removed by hypotonic lysis or dextran sedimentation. Blast cells were generated by incubating 2×10^6 PBMC in 24-well tissue culture plates that were coated with 2.5 μg of an anti-CD3 monoclonal antibody (identified as TR66, a gift from Dr. A. Lanzivecchia; similar monoclonal antibody is HIT3a, from Parmingen #30111A) at 37° C. for 48 to 72 hours, and then transferring 12 wells to T25 or T75 flasks with RPMI (Roswell Park Memorial Institute 1640, a growth cell medium available from Gibco/RBL, Inc., New York)+10% FCS (fetal calf serum)+50 units/ml IL-2. The cells are expanded and cultured for up to 3 weeks. CD3-Blast chemotaxis was assessed no sooner than 3 to 4 days after transfer to the IL-2 containing medium using a modification of a transendothelial migration assay (Carr. M. W., S. J. Roth, B. Luther, S. S. Rose, and T. A. Springer. 1994. Monocyte chemoattractant protein 1 acts as a T-lymphocyte chemoattractant. Proc. Natl. Acad. Sci. USA 91:3652-6). The endothelial cells used for this assay were the endothelial cell line ECV304. (ECV304 was from the European Collection of Animal Cell Cultures, Porton Downs, UK, assession #92091712). Endothelial cells were cultured on 6.5 mm diameter Transwell culture inserts (Costar) with a […] pore size. […] Background migration was determined by counting cells that migrated in the absence of MCP-1 in the lower chamber. […] The percent inhibition by compounds of directed migration was determined by the following formula: [drawing 32] […]

Data set [2] deals with T cell recruitment at sites of DHR. Description: Inhibition of T cell recruitment to rat skin inflammatory (DHR) sites. Type of data set: in vivo. On the procedure: Inbred, approximately 200 g, male Lewis rats were used in all experiments. Cutaneous delayed hypersensitivity (DHR) was induced as previously described (1). Briefly, rats were sensitized to KLH (Sigma Chemical Co., St. Louis, Mo.) by administering 50 μg KLH in 0.1 mL complete Freund's adjuvant (CFA; Sigma Chemical Co.) into each of 4 subcutaneous sites. After 14 days, DHR was elicited by the challenge of 5 μg KLH in PBS into multiple intradermal sites on the back. Analysis was performed 24 hours after antigen challenge. For each experiment, there were at least three groups of animals of at least four animals in each group. […]
T cell recruitment at sites of DHR was quantified using methods previously described (1-4). […] The cells in the effluent were highly purified (>95%) rat T cells as assessed by anti-rat CD3 (monoclonal antibody KT3, Biosource International, Camarillo, Calif.) immunoreactivity by flow cytometry. […] Skin challenge sites (8 mm in diameter) were counted on a γ counter 24 hours after injection of radiolabeled T cells. Lung, liver, and spleen were also collected and counted as comparative indices for evaluation of input.
Statistical significance was determined using a paired Student's t-test. […]

Values joined by “and” are separate entries in the source; they are usually repeats but may differ in a detail not shown here. Equal entries are not always repeated. Marks after values point to notes of the source that are not given here.

The melting point is the temperature, or range, at which the solid turns liquid. Take `CN(CCN1CCCCC1)c1ccc(-c2nc3cc(Cl)c(Cl)cc3[nH]2)cc1` [Example 2, N-[4-(5 ,6-dichloro-1H-benzimidazol-2-yl)-phenyl]-N-methyl-N-(2-piperidin-1-yl-ethyl)-amine]: the melting point is 165 to 167 °C. For the same compound, in data set [1], the “% Inhibition of Chemotaxis at 10 μM” value was 100% and 102%.

Turning to `CCN(CC)CCN(CCN(CC)CC)c1ccc(-c2nc3cc(Cl)c(Cl)cc3[nH]2)cc1` [Example 1, N-[4-(5,6-dichloro-1H-benzimidazol-2-yl)-phenyl]-N-(2-diethylamino-ethyl)-N, N-diethyl-ethane-1,2-diamine], the “% Inhibition of Chemotaxis at 10 μM” value in data set [1] was 62-142* %. Also, the “inhibition of T cell recruitment in rat DHR” value in data set [2] (30 and 23 mg/kg per os at the time of antigen challenge, 24 hour period (FIG. 2)) is given as “statistically significant inhibitory effect”. For the same compound, the “recruitment of 111In-labeled rat T cells to skin DHR sites” value in data set [2] (administered once per os at the time of antigen challenge (FIG. 2)) is “inhibited the recruitment of ^111In-labeled rat T cells to skin DHR sites in a dose-dependent fashion”.
